Assay results from US7576101B2, “Composition for and treatment of demyelinating diseases and paralysis by administration of remyelinating agents” (Elan Pharmaceuticals, Inc., priority 2003, dated 2009).
Entries after “also recorded” stand apart in the source; their conditions may differ. Read-outs that look alike come from different tables or passages of the source.

Columns and labels:
[1] = tested on: experimental allergic encephalomyelitis in female Hartley guinea pigs; settings: for mean clinical score day 70-80 after withdrawal (30 days treatment, 10 days off) vs continued treatment: p<0.05 Mann Whitney rank sum test; for escape from treatment: up to 40 days of treatment, compared with antibodies to α4 integrin
[2] = tested on: experimental allergic encephalomyelitis in female Hartley guinea pigs; experiment: Chronic EAE in guinea pigs: histological analysis and pathological score of brain and spinal cord; format: in vivo, guinea pig; settings: for spinal cord histology after 20 days of treatment (day 60 post immunization) / spinal cord histology after 40 days of treatment (day 80 post immunization): SCR and H-E sections, vs saline
Procedure: Animal Sacrifice and Histological Analysis. Untreated, chronic EAE animals (n=5) were sacrificed on day 40, as well as non-EAE controls (n=5). Following each 10-day treatment interval, 5 animals from each group were sacrificed (0.25 mL sodium pentobarbital), blood samples were collected for FACS analysis (see below), and the brain and spinal cord dissected and sectioned. Three spinal sections were used, corresponding to lumbar, thoracic and cervical regions of the cord. The brain was cut into five transverse sections. The first three proximal sections were combined in one block, and the last two distal sections in another. Tissues were fixed in 10% formalin and embedded in paraffin. […] sections were stained with hematoxylin-eosin (H-E) or solochrome-R-cyanlin (SCR) and evaluated by a blinded observer in each of four categories: (1) meningeal inflammation, (2) perivascular infiltration, (3) encephalitis or (4) myelitis and demyelination (Table 6). The combined pathological score represents the total score (out of a potential 20) from all 5 CNS sections in each animal.
Statistical Analysis. Statistical analysis was performed using SigmaStat v2 software (SPSS Inc.). Clinical scores were assessed using the Mann Whitney rank sum test, while pathological scores were assessed with a two-Way ANOVA. Quantitative abnormalities were compared using Kruskal-Wallis ANOVA on ranks. In each case, p<0.05 was considered significant. A linear regression was performed on the mean cell counts in the spinal cord.

[3] = tested on: demyelinated spinal cord lesions in chronic EAE of female Hartley guinea pigs; experiment: Spontaneous remyelination in chronic EAE guinea pigs (solochrome-R-cyanin, toluidine blue semithin sections, EM, lesion area analysis); format: in vivo, guinea pig; settings: for area of thinly myelinated axons in toluidine blue semithin sections vs saline / electron microscopy of lesioned spinal cord: day 30 of treatment
IL-2, IL-10, MCP-1 = experiment: Chronic EAE in guinea pigs: quantitative reverse transcription-PCR of spinal cord; format: in vivo, guinea pig; settings: for cytokine RNA (IL-2, IL-10, MCP-1) in spinal cord after withdrawal: 10 days after removal
Procedure: Quantitative Reverse Transcription-PCR: IL-2, IL-10, MCP-1. RNA was isolated from 30 mg of frozen guinea pig spinal cord using the S.N.A.P.™ (simple nucleic acid preparation) total RNA Isolation Kit (Invitrogen) according to manufacturer's instructions, modified to include a second DNAse treatment step followed by an additional purification over the S.N.A.P. column.
Primer/probe sequences and concentrations for IL-2, IL-10, and MCP-1 are given in Table 7, as well as the standard RNA used for each gene. RT-PCR was carried out in triplicate using the ABI PRISM® 7700 Sequence Detection System. 50 μl reactions contained 10 to 800 ng of total RNA and primers and probes at the concentrations indicated above in reaction buffer consisting of 6.67% glycerol (Amresco); 5.5 mM MgCl; 300 μM dATP, dCTP, dGTP, and dUTP; 100 nM probe; 1.25 unit of AmpliTaq Gold® DNA Polymerase (Applied Biosystems); 1× TaqMan® Buffer A (TaqMan® PCR Core reagents kit, Applied Biosystems), 20 units of RNase Inhibitor (Roche); 1.25 unit of murine leukemia virus (MULV) Reverse Transcriptase (Applied Biosystems). Reverse-transcription of RNA was carried out at 48° C. for 30 min., followed by a 10 min. denaturing step at 95° C. PCR was carried out by 40 thermo-cycles consisting of 95° C. for 15 seconds followed by 60° C. for 1 minute. Each plate included a standard curve using the standard RNA listed in Table 7 and two additional control samples: 1) a positive control RNA sample used on all plates, 2) a non-template control (NTC).
The correlation coefficients of the standard curves were greater than 0.990 for all data shown. The coefficients of variation for sample triplicates were less than 0.2. Since the RNA used for the standard curve is a heterogeneous mix of RNA containing a constant but unknown amount of the target message, the numbers calculated are relative.

[4] = tested on: α4 integrin on lymphocytes and monocytes; experiment: Chronic EAE in guinea pigs: FACS analysis of α4 integrin on circulating lymphocytes and monocytes; format: in vivo, guinea pig
Procedure: FACS Analysis. On day 80 post-immunization, heparinized blood samples were collected from non-EAE animals, saline-treated animals, N-[N-(3-pyridinesulfonyl)-L-3,3-dimethyl-4-thiaprolyl]-O-[1-methylpiperazin-4-ylcarbonyl]-L-tyrosine isopropyl ester-treated animals and animals 10 days following withdrawal of N-[N-(3-pyridinesulfonyl)-L-3,3-dimethyl-4-thiaprolyl]-O-[1-methylpiperazin-4-ylcarbonyl]-L-tyrosine isopropyl ester. All samples were maintained at 4° C. for all procedures. 150 μl samples were exposed to primary antibody for 30 minutes, washed twice, and then incubated with PE-conjugated goat anti-mouse IgG Fc in the presence of 5% guinea pig serum (Beckman Coulter #PN EM055 1). Red blood cells were lysed with Becton-Dickinson lysing solution and the samples were examined on a FACScan flow cytometer (Becton Dickinson, Mountain View, Calif.) gating on different cell populations by light scatter.

[5] = listed as N-[N-(3-pyridinesulfonyl)-L-3,3-dimethyl-4-thiaprolyl]-O-[1-methylpiperzain-4-yl

CC(C)OC(=O)[C@H](Cc1ccc(OC(=O)N2CCN(C)CC2)cc1)NC(=O)[C@H]1N(S(=O)(=O)c2cccnc2)CSC1(C)C [N-[N-(3-pyridinesulfonyl)-L-3,3-dimethyl-4-thiaprolyl]-O-[1-methylpiperazin-4-ylcarbonyl]-L-tyrosine isopropyl ester]
mean clinical score vs saline-treated animals over the treatment period ([1]; 30 mg/kg 2×/day s.c. from day 40 post immunization for 10-40 days, p<0.001 Mann Whitney rank sum test): significantly lower | start of clinical reversal following the initial treatment ([1]; 30 mg/kg twice a day s.c. from day 40 post immunization): 2 to 3 days | adverse side effects during prolonged administration ([1]; guinea pig, 30 mg/kg 2×/day s.c. for up to 40 days, listed as N-[N-(3-pyridinesulfonyl)-L-3,3-dimethyl-4-thiaprolyl]-O-[1-methylpiperzain-4-yl, 30 mg/kg): no adverse side effects | mean clinical score day 70-80 after withdrawal (30 days treatment, 10 days off) vs continued treatment [1]: significantly greater | mean clinical score day 70-80 after withdrawal (30 days treatment, 10 days off) vs continued treatment [1, 5]: significantly higher | hind limb paresis in animals with an established clinical score of 2 ([1]; reversion to a clinical score of 1 during treatment): reversed the paresis | escape from treatment [1]: None of the animals, however, escaped from treatment | escape from treatment [1, 5]: no escape from treatment | mean pathological score in each of four categories (meningeal inflammation, perivascular infiltration, encephalitis/myelitis, demyelination) vs saline ([2]; 10-40 days treatment, p<0.001 two-way ANOVA): significant decrease | spinal cord histology after 20 days of treatment (day 60 post immunization) [2]: much smaller areas of demyelination | spinal cord histology after 40 days of treatment (day 80 post immunization) [2]: almost no meningeal and perivascular infiltration | spinal cord histology after 20 days of treatment (day 60 post immunization) [2, 5]: much smaller area of demyelination | spinal cord histology after 40 days of treatment (day 80 post immunization) [2, 5]: almost no meningeal and perivascular inflammation | mean combined pathological score after withdrawal for 10 days vs continued treatment ([2]; p<0.05 Kruskal Wallis ANOVA on ranks with SNK test): significantly higher | incidence of remyelination (lesions showing myelin pallor as percent of all lesions) vs saline ([3]; 10-40 days, time-dependent): increased the incidence of remyelination | appearance of spinal cord lesions after 10 days of treatment (solochrome-R-cyanin) ([3]; 10 days): minimal evidence of myelin pallor | appearance of spinal cord lesions after 20 days of therapy (solochrome-R-cyanin) [3]: many lesions exhibited diffuse pale blue staining | appearance of spinal cord lesions after 20 days of therapy (solochrome-R-cyanin) [3, 5]: diffuse blue stain covering the plaque | appearance of spinal cord lesions after 40 days of therapy (solochrome-R-cyanin) [3]: presented as shadow plaques | appearance of spinal cord lesions after 40 days of therapy (solochrome-R-cyanin) [3, 5]: majority of lesions showed clear myelin pallor | area of remyelination as percent of total lesion area ([3]; after 20, 30 or 40 days of therapy): 50% | degree of remyelination of individual lesions ([3]; after 20, 30 or 40 days of treatment): 0-100% | area of thinly myelinated axons in toluidine blue semithin sections vs saline [3]: greatly expanded | electron microscopy of lesioned spinal cord [3]: multiple thin myelin layers around large caliber axons | area of thinly myelinated axons in toluidine blue semithin sections vs saline [3, 5]: more extensive | electron microscopy of lesioned spinal cord [3, 5]: multiple layers of thin myelin wrappings around large diameter axons | animals that regained motor function ([3]; paralyzed guinea pigs (clinical score 2) treated up to 40 days): 50% | cytokine RNA (IL-2, IL-10, MCP-1) in spinal cord after withdrawal (IL-2, IL-10, MCP-1): returned to levels comparable to saline-treated animals | cytokine RNA (IL-2, IL-10, MCP-1) in spinal cord after withdrawal (IL-2, IL-10, MCP-1; [5]): rose to levels comparable to those in saline-treated animals | IL-2 RNA in lumbar spinal cord (IL-2, IL-10, MCP-1; during treatment, vs saline): almost no detectable | expression of inflammatory cytokine RNA (IL-2, IL-10, MCP-1) in spinal cord (IL-2, IL-10, MCP-1; during treatment, vs saline): significant reduction; also recorded: marked decrease | percentage of α4 integrin bright lymphocytes in the circulation after removal ([4]; day 80, 10 days after withdrawal): returned to saline-treated levels | increase of α4 integrin expression on circulating monocytes in EAE ([4]; day 80 post immunization): not affected | α4 integrin bright lymphocytes in the circulation vs saline-treated animals ([4]; day 80 post immunization): large increase
